# Assay: Temperature (vital signs)
# Conditions: 60 mg
# Experimental: The Investigational Medicinal Product (IMP) R(−)-ketamine hydrochloride in sterile water for intravenous injection was investigated as an […] treatment of TRD. The International Union of Pure and Applied Chemistry (IUPAC) name is of the IMP is (2R)-2-(2-chlorophenyl)-2-(methylamino)cyclohexan-1-one. Subjects received the solution at either 30 mg or 60 mg dose, or a placebo. The IMP or placebo was administered on Day 1 as a single IV infusion via an electronic infusion pump over 40 minutes. The duration of study participation for each subject was up to 29 days including a screening period, a 3-day in-clinic visit, and 2 follow-up visits. 101 subjects were enrolled in approximately 20 study centers in the EU and the US.
# Tympanic or temporal temperature, heart rate, blood pressure (SBP/DBP), respiratory rate, and SpO2 were assessed. Blood pressure and pulse measurements will be assessed with a completely automated device while the subject is supine or semi-supine. Manual techniques will be used only if an automated device is not available. Blood pressure and pulse measurements should be preceded by at least 5 minutes of rest for the subject in a quiet setting without distractions (e.g., television, cell phones). An abnormal blood pressure value at screening may be repeated once after 5 minutes of relaxation to determine the subject's eligibility. Blood pressure was recorded using the same arm and position (supine or semi-supine) throughout the study, where possible. Vital signs (to be taken before blood collection for laboratory tests) consisted of 1 pulse and 3 blood pressure measurements (3 consecutive blood pressure readings will be recorded at intervals of at least 1 minute). The average of the 3 blood pressure readings was recorded in the CRF. A pulse oximeter was used to measure peripheral capillary oxygen saturation (SpO2) continuously from pre-dose until 4-hours post-dose. A pulse oximeter was clipped onto the finger or foot of the subject, and light will be sent through the finger or foot and measured on the other side.
# In these tables, baseline value is defined as the last non-missing value prior to study drug administration.
smiles,measurement,setting,value
"CN[C@@]1(c2ccccc2Cl)CCCCC1=O.Cl [R(−)-ketamine, (2R)-2-(2-chlorophenyl)-2-(methylamino)cyclohexan-1-one]","Temperature, Max","Day 1, 15 minutes",36.9 °C
same,"Temperature, Mean","Day 1, 15 minutes",36.58 °C
same,"Temperature, Median","Day 1, 15 minutes",36.50 °C
same,"Temperature, Min","Day 1, 15 minutes",36.4 °C
same,"Temperature, Max","Day 1, 40 minutes",36.8 °C
same,"Temperature, Mean","Day 1, 40 minutes",36.58 °C
same,"Temperature, Median","Day 1, 40 minutes",36.60 °C
same,"Temperature, Min","Day 1, 40 minutes",36.3 °C
same,"Temperature, Max","Day 1, 60 minutes",36.8 °C
same,"Temperature, Mean","Day 1, 60 minutes",36.55 °C
same,"Temperature, Median","Day 1, 60 minutes",36.50 °C
same,"Temperature, Min","Day 1, 60 minutes",36.4 °C
same,"Temperature, Max","Day 1, 2 hours",37.0 °C
same,"Temperature, Mean","Day 1, 2 hours",36.60 °C
same,"Temperature, Median","Day 1, 2 hours",36.60 °C
same,"Temperature, Min","Day 1, 2 hours",36.2 °C
same,"Temperature, Max","Day 1, 4 hours",37.0 °C
same,"Temperature, Mean","Day 1, 4 hours",36.60 °C
same,"Temperature, Median","Day 1, 4 hours",36.60 °C
same,"Temperature, Min","Day 1, 4 hours",36.3 °C
same,"Temperature, Max","Day 1, 6 hours",37.1 °C
same,"Temperature, Mean","Day 1, 6 hours",36.61 °C
same,"Temperature, Median","Day 1, 6 hours",36.60 °C
same,"Temperature, Min","Day 1, 6 hours",36.1 °C
same,"Temperature, Max",Day 2 - Discharge,36.9 °C
same,"Temperature, Mean",Day 2 - Discharge,36.60 °C
same,"Temperature, Median",Day 2 - Discharge,36.60 °C
same,"Temperature, Min",Day 2 - Discharge,36.1 °C
same,"Temperature, Max",Day 8,37.2 °C
same,"Temperature, Mean",Day 8,36.55 °C
same,"Temperature, Median",Day 8,36.60 °C
same,"Temperature, Min",Day 8,35.8 °C
same,"Temperature, Max",Day 15,37.0 °C
same,"Temperature, Mean",Day 15,36.62 °C
same,"Temperature, Median",Day 15,36.60 °C
same,"Temperature, Min",Day 15,36.3 °C
same,"Temperature, Change from Baseline, Max","to Day 1, 15 minutes",0.3 °C
same,"Temperature, Change from Baseline, Mean","to Day 1, 15 minutes",0.04 °C
same,"Temperature, Change from Baseline, Median","to Day 1, 15 minutes",0.00 °C
same,"Temperature, Change from Baseline, Min","to Day 1, 15 minutes",−0.2 °C
same,"Temperature, Change from Baseline, Max","to Day 1, 40 minutes",0.7 °C
same,"Temperature, Change from Baseline, Mean","to Day 1, 40 minutes",0.05 °C
same,"Temperature, Change from Baseline, Median","to Day 1, 40 minutes",0.00 °C
same,"Temperature, Change from Baseline, Min","to Day 1, 40 minutes",−0.4 °C
same,"Temperature, Change from Baseline, Max","to Day 1, 60 minutes",0.3 °C
same,"Temperature, Change from Baseline, Mean","to Day 1, 60 minutes",0.01 °C
same,"Temperature, Change from Baseline, Median","to Day 1, 60 minutes",0.00 °C
same,"Temperature, Change from Baseline, Min","to Day 1, 60 minutes",−0.3 °C
same,"Temperature, Change from Baseline, Max","to Day 1, 2 hours",0.8 °C
same,"Temperature, Change from Baseline, Mean","to Day 1, 2 hours",0.07 °C
same,"Temperature, Change from Baseline, Median","to Day 1, 2 hours",0.00 °C
same,"Temperature, Change from Baseline, Min","to Day 1, 2 hours",−0.5 °C
same,"Temperature, Change from Baseline, Max","to Day 1, 4 hours",0.9 °C
same,"Temperature, Change from Baseline, Mean","to Day 1, 4 hours",0.07 °C
same,"Temperature, Change from Baseline, Median","to Day 1, 4 hours",0.00 °C
same,"Temperature, Change from Baseline, Min","to Day 1, 4 hours",−0.2 °C
same,"Temperature, Change from Baseline, Max","to Day 1, 6 hours",1.0 °C
same,"Temperature, Change from Baseline, Mean","to Day 1, 6 hours",0.07 °C
same,"Temperature, Change from Baseline, Median","to Day 1, 6 hours",0.00 °C
same,"Temperature, Change from Baseline, Min","to Day 1, 6 hours",−0.4 °C
same,"Temperature, Change from Baseline, Max",to Day 2 - Discharge,0.6 °C
same,"Temperature, Change from Baseline, Mean",to Day 2 - Discharge,0.07 °C
same,"Temperature, Change from Baseline, Median",to Day 2 - Discharge,0.10 °C
same,"Temperature, Change from Baseline, Min",to Day 2 - Discharge,−0.7 °C
same,"Temperature, Change from Baseline, Max",to Day 8,1.2 °C
same,"Temperature, Change from Baseline, Mean",to Day 8,0.01 °C
same,"Temperature, Change from Baseline, Median",to Day 8,0.00 °C
same,"Temperature, Change from Baseline, Min",to Day 8,−0.9 °C
same,"Temperature, Change from Baseline, Max",to Day 15,1.2 °C
same,"Temperature, Change from Baseline, Mean",to Day 15,0.08 °C
same,"Temperature, Change from Baseline, Median",to Day 15,0.00 °C
same,"Temperature, Change from Baseline, Min",to Day 15,−0.5 °C

# — patent US20260027068A1, “METHODS OF ADM[…]-KETAMINE” (Perception Neuroscience, Inc., priority 2022, published 2026)
